According to patent US20260000710A1, “Novel Treatments for Cardiovascular Related Disease” (priority 2022, published 2026):

Tested on: AIM+ and AIM− CD4+ T cells from peptide-expanded PBMCs
Experiment: TCRβ CDR3 sequencing (immunoSEQ) of sorted AIM+ and AIM− CD4+ T cells;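 also: genomic DNA from sorted cells as template, amplification bias-controlled two-step multiplex PCR, APOB6 pool at 10 µg/ml per peptide, CD40 blocking antibody added before restimulation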
Assay type: cell-based, human
Conditions: for Log10 Odds Ratio: AIM+ vs AIM−; for No. of clone-specific productive templates, AIM+ CD4+ T (Total 16700) / No. of clone-specific productive templates, AIM− CD4+ T (Total 21770) / No. of clone-specific productive templates, AIM+ CD4+ T (Total 34927) / No. of clone-specific productive templates, AIM− CD4+ T (Total 45364) / No. of clone-specific productive templates, AIM+ CD4+ T (Total 21697) / No. of clone-specific productive templates, AIM− CD4+ T (Total 49956) / No. of clone-specific productive templates, AIM+ CD4+ T (Total 25796) / No. of clone-specific productive templates, AIM− CD4+ T (Total 25928) / No. of clone-specific productive templates, AIM+ CD4+ T (Total 31354) / No. of clone-specific productive templates, AIM− CD4+ T (Total 48987) / No. of clone-specific productive templates, AIM+ CD4+ T (Total 18591) / No. of clone-specific productive templates, AIM− CD4+ T (Total 7206): PBMCs expanded 14 days and restimulated 24 h with APOB6
Method: To examine the clonotypic identities of autoreactive CD4^+ T cells, the hypervariable TCRβ DR3 region was sequenced using a DNA-based sequencing technique^42 (Adaptive Biotechnologies), which have been used to profile clonal populations of other self-antigen specific T cells^43. PBMCs from six HLA-typed donors (demographics and HLA-II alleles in Tables 5, 6) were expanded (14-days) and restimulated (24 h) with the APOB6 pool. To isolate viable responder and non-responder CD4^+ T cells from the same pool of stimulated PBMCs (schematic in FIG. 15A, gating strategy in FIG. 151B), the inventors used the AIM assay protocol (FIGS. 2A to 2D).
As a second control, unexpanded PBMCs (day 0 samples), sorted into naïve, central memory (TCM) and effector memory (TEM) CD4^+ T cells, were used (gating strategy in FIG. 15C). This allowed tracing the APOB6-specific AIM^+ T cell clones in naïve and memory T cell lineages. Genomic DNA, isolated from sorted AIM^− and AIM^+ Day 14 samples and naïve, TCM and TEM Day 0 samples from six donors, was used as the starting material for TCRVβ sequencing (schematic in FIG. 15A) using an optimized two-step, amplification bias-controlled multiplex-PCR-based approach^42,44 (immunoSEQ Human TCRB Assay, Adaptive Biotechnologies).
For isolation of APOB epitope-specific CD4^+ T cells, PBMCs were expanded with the APOB6pool (10 μg/ml per peptide). On Day 14, cultured cells were washed and re-stimulated with APOB6 (10 μg/ml) for 24 h (AIM assay protocol). 1 μg/ml of CD40 blocking antibody was added 15 min before stimulation. At the end of the stimulation period, cells were washed with FACS buffer (PBS w/o Ca/Mg, 2% FCS). Day 14 (APOB6 expanded and restimulated) and Day 0 (ex vivo samples with no in vitro stimulation) PBMC samples from six donors were resuspended in a staining master mix containing anti-human Fc-Block (Biolegend), fixable viability dye and antibodies against T cell and non-T cell (Dump) surface markers, activation markers and memory markers (antibody details in Table 4). Viability dye was used at 1:1000 dilution, antibodies were used at a final dilution of 1:100 (activation markers) and 1:200 (other extracellular markers). […] Gates were set based on unstimulated and PHA-L stimulated negative and positive controls, respectively. Antigen-specific AIM^+ and non-specific control AIM^− CD4^+ T cells from Day 14 samples and naïve (CD45RA^+CCR7^+), central memory (CD45RA^−CCR7^+, TCM) and effector memory (CD45RA^−CCR7^−, TEM) CD4^+ T cells from Day 0 PBMCs were sorted into HEPES-containing buffer (PBS with 2% FBS and 0.025 M HEPES) using BD FACSAria flow cytometry sorters. Acquired data was analyzed with FlowJo software.
Genomic DNA was extracted from sorted cells using QIAamp DNA Micro Kit (QIAGEN) and sent to Adaptive Biotechnologies for survey-level TCRβ sequencing (depth ˜60,000 reads) using their established immunoSEQ platform^7. Briefly, highly variable CDR3 regions on somatically rearranged human TCRβ chains were amplified with a two-step multiplex PCR approach using optimized set of primers that target the VDJ region spanning each unique CDR3B. A synthetic repertoire containing all possible V/J templates is used as a built-in control to quantify and correct PCR amplification biases. Processing of raw Illumina sequence reads, filtering, demultiplexing, clustering and mapping of CDR3 sequences and annotation of VDJ genes using IMGT database sequences were performed at Adaptive Biotechnologies and made available for download and analysis.

CASIRPGLNYGYTF: TCRβ CDR3 clone, TCRBV06-05+TCRBJ01-02, Donor 3
Log10 Odds Ratio (Donor 3): 1.08
No. of clone-specific productive templates, AIM+ CD4+ T (Total 16700) (Donor 3): 436
No. of clone-specific productive templates, AIM− CD4+ T (Total 21770) (Donor 3): 48

CASRETGGAGELFF: TCRβ CDR3 clone, TCRBV06-05+TCRBJ02-02, Donor 6
Log10 Odds Ratio (Donor 6): 2.71
No. of clone-specific productive templates, AIM+ CD4+ T (Total 34927) (Donor 6): 393
No. of clone-specific productive templates, AIM− CD4+ T (Total 45364) (Donor 6): 1

CASRGQRDTGELFF: TCRβ CDR3 clone, TCRBV19-01+TCRBJ02-02, Donor 1
Log10 Odds Ratio (Donor 1): 2.63
No. of clone-specific productive templates, AIM+ CD4+ T (Total 21697) (Donor 1): 367
No. of clone-specific productive templates, AIM− CD4+ T (Total 49956) (Donor 1): 2

CASRKQGLGYTEAFF: TCRβ CDR3 clone, TCRBV02-01+TCRBJ01-01, Donor 4
Log10 Odds Ratio (Donor 4): 2.45
No. of clone-specific productive templates, AIM+ CD4+ T (Total 25796) (Donor 4): 544
No. of clone-specific productive templates, AIM− CD4+ T (Total 25928) (Donor 4): 2

CASRKTGSLYGYTF: TCRβ CDR3 clone, TCRBV27-01+TCRBJ01-02, Donor 5
Log10 Odds Ratio (Donor 5): 11.80
No. of clone-specific productive templates, AIM+ CD4+ T (Total 31354) (Donor 5): 411
No. of clone-specific productive templates, AIM− CD4+ T (Total 48987) (Donor 5): 0

CASRTIGQGSFNYGYTF: TCRβ CDR3 clone, TCRBV27-01+TCRBJ01-02, Donor 1
Log10 Odds Ratio (Donor 1): 2.78
No. of clone-specific productive templates, AIM+ CD4+ T (Total 21697) (Donor 1): 257
No. of clone-specific productive templates, AIM− CD4+ T (Total 49956) (Donor 1): 1

CASRTTTGFLSPLHF: TCRβ CDR3 clone, TCRBV27-01+TCRBJ01-06, Donor 3
Log10 Odds Ratio (Donor 3): 1.86
No. of clone-specific productive templates, AIM+ CD4+ T (Total 16700) (Donor 3): 273
No. of clone-specific productive templates, AIM− CD4+ T (Total 21770) (Donor 3): 5

CASSAMVEQPQHF: TCRβ CDR3 clone, TCRBV06-X+TCRBJ01-05, Donor 4
Log10 Odds Ratio (Donor 4): 0.55
No. of clone-specific productive templates, AIM+ CD4+ T (Total 25796) (Donor 4): 1709
No. of clone-specific productive templates, AIM− CD4+ T (Total 25928) (Donor 4): 503

CASSDDLAANVLTF: TCRβ CDR3 clone, TCRBV13-01+TCRBJ02-06, Donor 2
Log10 Odds Ratio (Donor 2): 1.61
No. of clone-specific productive templates, AIM+ CD4+ T (Total 18591) (Donor 2): 411
No. of clone-specific productive templates, AIM− CD4+ T (Total 7206) (Donor 2): 4

CASSELGLNTDTQYF: TCRβ CDR3 clone, TCRBV06-01+TCRBJ02-03, Donor 4
Log10 Odds Ratio (Donor 4): 1.11
No. of clone-specific productive templates, AIM+ CD4+ T (Total 25796) (Donor 4): 2236
No. of clone-specific productive templates, AIM− CD4+ T (Total 25928) (Donor 4): 190

CASSELGTRPNEQFF: TCRβ CDR3 clone, TCRBV10-01+TCRBJ02-01, Donor 4
Log10 Odds Ratio (Donor 4): 2.76
No. of clone-specific productive templates, AIM+ CD4+ T (Total 25796) (Donor 4): 558
No. of clone-specific productive templates, AIM− CD4+ T (Total 25928) (Donor 4): 1

CASSEMGLNTDTQYF: TCRβ CDR3 clone, TCRBV06-01+TCRBJ02-03, Donor 4
Log10 Odds Ratio (Donor 4): 0.45
No. of clone-specific productive templates, AIM+ CD4+ T (Total 25796) (Donor 4): 1601
No. of clone-specific productive templates, AIM− CD4+ T (Total 25928) (Donor 4): 601

CASSFTYDEQFF: TCRβ CDR3 clone, TCRBV07-09+TCRBJ02-01, Donor 5
Log10 Odds Ratio (Donor 5): 1.66
No. of clone-specific productive templates, AIM+ CD4+ T (Total 31354) (Donor 5): 457
No. of clone-specific productive templates, AIM− CD4+ T (Total 48987) (Donor 5): 16

CASSFVDSPESYEQYF: TCRβ CDR3 clone, TCRBV12-X+TCRBJ02-07, Donor 1
Log10 Odds Ratio (Donor 1): 2.01
No. of clone-specific productive templates, AIM+ CD4+ T (Total 21697) (Donor 1): 486
No. of clone-specific productive templates, AIM− CD4+ T (Total 49956) (Donor 1): 11

CASSIPQGSGSPLHF: TCRβ CDR3 clone, TCRBV05-06+TCRBJ01-06, Donor 6; top-ranked APOB6-specific rearrangement
Log10 Odds Ratio (Donor 6): 2.41
No. of clone-specific productive templates, AIM+ CD4+ T (Total 34927) (Donor 6): 9283
No. of clone-specific productive templates, AIM− CD4+ T (Total 45364) (Donor 6): 63

CASSIRPNDEQFF: TCRβ CDR3 clone, TCRBV09-01+TCRBJ02-01, Donor 1
Log10 Odds Ratio (Donor 1): 2.93
No. of clone-specific productive templates, AIM+ CD4+ T (Total 21697) (Donor 1): 366
No. of clone-specific productive templates, AIM− CD4+ T (Total 49956) (Donor 1): 1

CASSISLALIYEQYF: TCRβ CDR3 clone, TCRBV19-01+TCRBJ02-07, Donor 6
Log10 Odds Ratio (Donor 6): 2.09
No. of clone-specific productive templates, AIM+ CD4+ T (Total 34927) (Donor 6): 371
No. of clone-specific productive templates, AIM− CD4+ T (Total 45364) (Donor 6): 4

CASSKVNEKLFF: TCRβ CDR3 clone, TCRBV03-01/03-02+TCRBJ01-04, Donor 2
Log10 Odds Ratio (Donor 2): 1.19
No. of clone-specific productive templates, AIM+ CD4+ T (Total 18591) (Donor 2): 361
No. of clone-specific productive templates, AIM− CD4+ T (Total 7206) (Donor 2): 9

CASSLAGTGTNEQFF: TCRβ CDR3 clone, TCRBV05-01+TCRBJ02-01, Donor 1
Log10 Odds Ratio (Donor 1): 2.97
No. of clone-specific productive templates, AIM+ CD4+ T (Total 21697) (Donor 1): 396
No. of clone-specific productive templates, AIM− CD4+ T (Total 49956) (Donor 1): 1

CASSLALGTGDTEAFF: TCRβ CDR3 clone, TCRBV05-01+TCRBJ01-01, Donor 1
Log10 Odds Ratio (Donor 1): 2.98
No. of clone-specific productive templates, AIM+ CD4+ T (Total 21697) (Donor 1): 410
No. of clone-specific productive templates, AIM− CD4+ T (Total 49956) (Donor 1): 1

CASSLERGAYGYTF: TCRβ CDR3 clone, TCRBV07-02+TCRBJ01-02, Donor 6
Log10 Odds Ratio (Donor 6): 2.81
No. of clone-specific productive templates, AIM+ CD4+ T (Total 34927) (Donor 6): 963
No. of clone-specific productive templates, AIM− CD4+ T (Total 45364) (Donor 6): 2

CASSLPRDRDYGYTF: TCRβ CDR3 clone, TCRBV06-02+TCRBJ01-02, Donor 3
Log10 Odds Ratio (Donor 3): 2.55
No. of clone-specific productive templates, AIM+ CD4+ T (Total 16700) (Donor 3): 269
No. of clone-specific productive templates, AIM− CD4+ T (Total 21770) (Donor 3): 1

CASSLRTGIINEQFF: TCRβ CDR3 clone, TCRBV05-01+TCRBJ02-01, Donor 5
Log10 Odds Ratio (Donor 5): 11.77
No. of clone-specific productive templates, AIM+ CD4+ T (Total 31354) (Donor 5): 383
No. of clone-specific productive templates, AIM− CD4+ T (Total 48987) (Donor 5): 0

CASSLTRIPEQYF: TCRβ CDR3 clone, TCRBV28-01+TCRBJ02-07, Donor 1
Log10 Odds Ratio (Donor 1): 0.90
No. of clone-specific productive templates, AIM+ CD4+ T (Total 21697) (Donor 1): 459
No. of clone-specific productive templates, AIM− CD4+ T (Total 49956) (Donor 1): 136

CASSLYAGQNTEAFF: TCRβ CDR3 clone, TCRBV07-02+TCRBJ01-01, Donor 6
Log10 Odds Ratio (Donor 6): 2.35
No. of clone-specific productive templates, AIM+ CD4+ T (Total 34927) (Donor 6): 344
No. of clone-specific productive templates, AIM− CD4+ T (Total 45364) (Donor 6): 2

CASSPADREETQYF: TCRβ CDR3 clone, TCRBV18-01+TCRBJ02-05, Donor 3
Log10 Odds Ratio (Donor 3): 0.99
No. of clone-specific productive templates, AIM+ CD4+ T (Total 16700) (Donor 3): 410
No. of clone-specific productive templates, AIM− CD4+ T (Total 21770) (Donor 3): 56
